Like-named read-outs stand apart in the source and are kept apart here.
How the values were obtained:
CEM cells = assay: Cytostatic assay, CEM; type: cell-based; conditions: for Ratio (tumor cell selectivity): ratio IC50 HeLa / IC50 CEM
Protocol: (§1) To each well of a 96-well microtiter plate were added 5-7.5×10^4 cells and a given amount of the test compound. The cells were allowed to proliferate for 48 h to 96 h (depending on the nature of the cell line) at 37° C. in a humidified CO2-controlled atmosphere. At the end of the incubation period, the cells were counted in a Coulter Counter (Coulter Electronics Ltd, Harpenden Herts, United Kingdom).

[1] = tested on: HeLa cervix carcinoma cells; assay: Cytostatic assay, HeLa; type: cell-based, human
Protocol: as §1

Molt4/C8 cells = assay: Cytostatic assay, Molt4/C8; type: cell-based; conditions: Table 2
Protocol: as §1

Sup T1 cells = assay: Cytostatic assay, Sup T1; type: cell-based; conditions: Homo sapiens, Table 2, read-out: Cytostatic activity (μM) Sup T 1
Protocol: as §1

MT-2 cells = assay: Cytostatic assay, MT-2; type: cell-based; conditions: Homo sapiens, MT2; Table 2
Protocol: as §1

C8166 cells = assay: Cytostatic assay, C8166; type: cell-based; conditions: Homo sapiens, Table 2
Protocol: as §1

HUT-78 cells = assay: Cytostatic assay, HUT-78; type: cell-based; conditions: Homo sapiens, HuT78; Table 2
Protocol: as §1

MT-4 cells = assay: Cytostatic assay, MT-4; type: cell-based; conditions: Homo sapiens, MT4; Table 2
Protocol: as §1

[2] = tested on: HL60, human leukemia cells; assay: Cytostatic assay, HL-60; type: cell-based; conditions: Table 2
Protocol: as §1

[3] = tested on: U937, human monocytic cells; assay: Cytostatic assay, U937; type: cell-based; conditions: U-937, Table 2
Protocol: as §1

[4] = tested on: THP-1, human monocytic cells; assay: Cytostatic assay, THP-1; type: cell-based; conditions: Table 2
Protocol: as §1

[5] = tested on: Raji, human B-lymphoma cells; assay: Cytostatic assay, Raji; type: cell-based; conditions: Table 2
Protocol: as §1

[6] = tested on: OST TK- osteosarcoma cells; assay: Cytostatic assay, OST TK-; type: cell-based; conditions: Homo sapiens; Table 3
Protocol: as §1

[7] = tested on: MCF-7 mammary carcinoma cells; assay: Cytostatic assay, MCF-7; type: cell-based; conditions: Homo sapiens, MCF7; Table 3
Protocol: as §1

[8] = tested on: FM3A mammary carcinoma cells; assay: Cytostatic assay, FM3A; type: cell-based, murine; conditions: Mus musculus, Table 3
Protocol: as §1

[9] = tested on: Caki-1 kidney carcinoma cells; assay: Cytostatic assay, Caki-1; type: cell-based; conditions: Homo sapiens, Table 3
Protocol: as §1

[10] = tested on: Caki-2 kidney carcinoma cells; assay: Cytostatic assay, Caki-2; type: cell-based; conditions: Homo sapiens, Table 3
Protocol: as §1

[11] = tested on: 293T embryonic kidney cells; assay: Cytostatic assay, 293T; type: cell-based; conditions: Homo sapiens, HEK-293T; Table 3
Protocol: as §1

[12] = tested on: HT29 colorectal carcinoma cells; assay: Cytostatic assay, HT29; type: cell-based; conditions: Homo sapiens, HT-29; Table 3
Protocol: as §1

U87 glioma cells = assay: Cytostatic assay, U87; type: cell-based; conditions: Homo sapiens, U-87 MG; Table 3
Protocol: as §1

[13] = tested on: HEL embryonic lung fibroblast cells; assay: Cytostatic assay, HEL; type: cell-based; conditions: Homo sapiens, Table 3
Protocol: as §1

[14] = tested on: BAEC aortic endothelial cells; assay: Cytostatic assay, BAEC; type: cell-based, bovine; conditions: Bos taurus, Table 3
Protocol: as §1

[15] = tested on: PC3 (rega) prostate cancer cells; assay: Cytostatic assay, PC3 (rega); type: cell-based; conditions: Table 4
Protocol: as §1

BPH-1 (UZ) = assay: Cytostatic assay, BPH-1 (UZ); type: cell-based; conditions: Homo sapiens, Table 4
Protocol: as §1

[16] = tested on: DU145 (UZ) prostate cancer cells; assay: Cytostatic assay, DU145 (UZ); type: cell-based; conditions: Homo sapiens, DU-145; Table 4
Protocol: as §1

[17] = tested on: PC-3 (UZ) prostate cancer cells; assay: Cytostatic assay, PC-3 (UZ); type: cell-based; conditions: Table 4
Protocol: as §1

[18] = tested on: LNCaP (UZ) prostate cancer cells; assay: Cytostatic assay, LNCaP (UZ); type: cell-based; conditions: Homo sapiens, Table 4
Protocol: as §1

[19] = tested on: PNT1A (UZ) prostate cells; assay: Cytostatic assay, PNT1A (UZ); type: cell-based; conditions: Homo sapiens, Table 4
Protocol: as §1

[20] = tested on: 22Rv1 (UZ) prostate cancer cells; assay: Cytostatic assay, 22Rv1 (UZ); type: cell-based; conditions: Homo sapiens, Table 4
Protocol: as §1

PLC/PRF/5 hepatoma cells = assay: Cytostatic assay, PLC/PRF/5; type: cell-based; conditions: Homo sapiens, Table 4
Protocol: as §1

HepG2C3A hepatoma cells = assay: Cytostatic assay, HepG2C3A; type: cell-based; conditions: Homo sapiens, HepG2/C3A; Table 4
Protocol: as §1

Huh-7 hepatoma cells = assay: Cytostatic assay, Huh-7; type: cell-based; conditions: Homo sapiens, Table 4
Protocol: as §1

[21] = Homo sapiens, CCRF-CEM, CEM cells, Table 7, 5-arylthiomethyl-substituted 2-amino-3-carboxymethylthiophenes, read-out: IC50 (μM) CEM
[22] = Homo sapiens, CCRF-CEM, Table 1b, read-out: IC50 (μM) (CEM)
[23] = Homo sapiens, HeLa cells, Table 7, 5-arylthiomethyl-substituted 2-amino-3-carboxymethylthiophenes, read-out: IC50 (μM) HeLa
[24] = Homo sapiens, Table 1b, read-out: IC50 (μM) (HeLa)
[25] = Homo sapiens, CCRF-CEM, CEM cells, Table 6, 5-alkyl-substituted 2-aminothiophenes, read-out: IC50 (μM) CEM
[26] = Homo sapiens, HeLa cells, Table 6, 5-alkyl-substituted 2-aminothiophenes, read-out: IC50 (μM) HeLa

## COC(=O)c1cc(CSCc2cccs2)sc1N [TJ118, Methyl 2-amino-5-((thiophen-2-ylmethylthio)methyl)thiophene-3-carboxylate]
CEM cells; [21]
  IC50: 3.3 µM
CEM cells; [22]
  IC50: 3.3 ± 0.9 µM
CEM cells; Table 7
  Ratio (tumor cell selectivity): 30
[1]; [23]
  IC50: 99 µM
[1]; [24]
  IC50: 99 ± 5 µM

## CCCCSCc1cc(C(=O)OC)c(N2C(=O)c3ccccc3C2=O)s1 [TJ119, Methyl 2-phthalimido-5-(2-(butyl)sulfanylmethyl)thiophene-3-carboxylate]
CEM cells; Table 1c, read-out: IC50 (μM) CEM
  IC50: 6.6 ± 3.2 µM
[1]; Table 1c, read-out: IC50 (μM) HeLa
  IC50: 104 ± 1 µM

## COC(=O)c1cc(CSc2ccccc2N)sc1N [TJ122, Methyl 2-amino-5-((2-aminophenylthio)methyl)thiophene-3-carboxylate]
CEM cells; [21]
  IC50: 39 µM
CEM cells; Table 7
  Ratio (tumor cell selectivity): 1
[1]; [23]
  IC50: 46 µM

## COC(=O)c1cc(CSc2ccc([N+](=O)[O-])cc2)sc1N [TJ126, Methyl 2-amino-5-((4-nitrophenylthio)methyl)thiophene-3-carboxylate]
CEM cells; [21]
  IC50: 12 µM
CEM cells; Table 7
  Ratio (tumor cell selectivity): 1
[1]; [23]
  IC50: 16 µM

## COC(=O)c1cc(CSCc2ccc(OC)cc2)sc1N1C(=O)c2ccccc2C1=O [TJ127, Methyl 2-phthalimido-5-(2-(4-methoxybenzyl)sulfanylmethyl)thiophene-3-carboxylate]
CEM cells; Table 1b, read-out: IC50 (μM) (CEM)
  IC50: 25 ± 8 µM
[1]; Table 1b, read-out: IC50 (μM) (HeLa)
  IC50: 111 ± 20 µM

## COC(=O)c1cc(CSc2ccncc2)sc1N [TJ129, Methyl 2-amino-5-((pyridin-4-ylthio)methyl)thiophene-3-carboxylate]
CEM cells; [21]
  IC50: 111 µM
CEM cells; Table 7
  Ratio (tumor cell selectivity): 1
[1]; [23]
  IC50: 93 µM

## COC(=O)c1cc(CSc2ccc(OC)cc2)sc1N [TJ130, Methyl 2-amino-5-((4-methoxyphenylthio)methyl)thiophene-3-carboxylate]
CEM cells; [21]
  IC50: 3.9 µM
CEM cells; [22]
  IC50: 3.9 ± 1.4 µM
CEM cells; Table 7
  Ratio (tumor cell selectivity): 23
[1]; [23]
  IC50: 88 µM
[1]; [24]
  IC50: 88 ± 10 µM

## CCc1cc(C(=O)OC)c(N)s1 [TJ157, Methyl 2-amino-5-ethylthiophene-3-carboxylate]
CEM cells; [25]
  IC50: 175 µM
CEM cells; Table 6
  Ratio (tumor cell selectivity): 1
[1]; [26]
  IC50: 180 µM

## COC(=O)c1cc(CCCCl)sc1N [TJ168D, Methyl 2-amino-5-(3-chloropropyl)thiophene-3-carboxylate]
CEM cells; [25]
  IC50: 26 µM
CEM cells; Table 6
  Ratio (tumor cell selectivity): 6
[1]; [26]
  IC50: 150 µM

## COC(=O)c1cc(CCCSc2ccc(OC)cc2)sc1N [TJ169, Methyl 2-amino-5-(3-(4-methoxyphenylthio)propyl)thiophene-3-carboxylate]
CEM cells; [21]
  IC50: 0.97 µM
CEM cells; Table 7
  Ratio (tumor cell selectivity): 61
[1]; [23]
  IC50: 59 µM

## COC(=O)c1cc(CCCSC2CCCCC2)sc1N [TJ170, Methyl 2-amino-5-(3-(cyclohexylthio)propyl)thiophene-3-carboxylate]
CEM cells; [21]
  IC50: 0.57 µM
CEM cells; Table 7
  Ratio (tumor cell selectivity): 96
[1]; [23]
  IC50: 55 µM

## COC(=O)c1cc(CSC2CCCC2)sc1N [TJ179, Methyl 2-amino-5-(cyclopentylthiomethyl)thiophene-3-carboxylate]
CEM cells; [21]
  IC50: 1.8 µM
CEM cells; Table 7
  Ratio (tumor cell selectivity): 44
[1]; [23]
  IC50: 80 µM

## COC(=O)c1cc(CSc2ccc(-c3ccccc3)cc2)sc1N [TJ184, Methyl 2-amino-5-((biphenyl-4-ylthio)methyl)thiophene-3-carboxylate]
CEM cells; [21]
  IC50: 1.2 µM
CEM cells; Table 7
  Ratio (tumor cell selectivity): 46
[1]; [23]
  IC50: 55 µM

## CCc1ccc(SCc2cc(C(=O)OC)c(N)s2)cc1 [TJ185, Methyl 2-amino-5-((4-ethylphenylthio)methyl)thiophene-3-carboxylate]
CEM cells; [21]
  IC50: 0.34 µM
CEM cells; Table 7
  Ratio (tumor cell selectivity): 144
[1]; [23]
  IC50: 49 µM

## COC(=O)c1cc(CSc2ccc(C(C)C)cc2)sc1N [TJ186, Methyl 2-amino-5-((4-isopropylphenylthio)methyl)thiophene-3-carboxylate]
CEM cells; [21]
  IC50: 0.46 µM
CEM cells; Table 7
  Ratio (tumor cell selectivity): 100
[1]; [23]
  IC50: 46 µM

## COC(=O)c1cc(CSCCc2ccccc2)sc1N [TJ187, Methyl 2-amino-5-(phenethylthiomethyl)thiophene-3-carboxylate]
CEM cells; [21]
  IC50: 1.2 µM
CEM cells; Table 7
  Ratio (tumor cell selectivity): 62
[1]; [23]
  IC50: 74 µM

## CCCc1cc(C(=O)OC)c(N)s1 [TJ190, Methyl 2-amino-5-propylthiophene-3-carboxylate]
CEM cells; [25]
  IC50: 6.9 µM
CEM cells; Table 6
  Ratio (tumor cell selectivity): 9
[1]; [26]
  IC50: 61 µM

## COC(=O)c1c(N)sc(CCc2cc(OC)ccc2OC)c1C [TR599, 2-Amino-5-[2-(2,5-dimethoxy-phenyl)-ethyl]-4-methyl-thiophene-3-carboxylic acid methyl ester]
CEM cells; Homo sapiens, CCRF-CEM, Table 1a, read-out: IC50 μM (CEM)
  IC50: 44 µM
CEM cells; Homo sapiens, CCRF-CEM, Table 2, read-out: Cytostatic activity (μM) CEM
  IC50: 44 µM
Molt4/C8 cells
  IC50: 47 ± 16 µM
Sup T1 cells
  IC50: 32 ± 15 µM
MT-2 cells
  IC50: 37 ± 29 µM
C8166 cells
  IC50: 110 ± 31 µM
HUT-78 cells
  IC50: 21 ± 1.4 µM
MT-4 cells
  IC50: 58 ± 21 µM
[2]
  IC50: 18 ± 4.9 µM
[3]
  IC50: 68 ± 0.7 µM
[4]
  IC50: 9 ± 0.6 µM
[5]
  IC50: 49 ± 13 µM
[6]
  IC50: 34 ± 23 µM
[7]
  IC50: 11 ± 8.5 µM
[8]
  IC50: 48 ± 3.5 µM
[1]; Homo sapiens, Table 3, read-out: Cytostatic activity (μM) Hela
  IC50: 38 ± 11 µM
[9]
  IC50: 57 ± 38 µM
[10]
  IC50: 52 ± 17 µM
[11]
  IC50: 52 ± 2.1 µM
[12]
  IC50: 47 ± 2.1 µM
U87 glioma cells
  IC50: 41 ± 4.9 µM
[13]
  IC50: 46 ± 3.5 µM
[14]
  IC50: 52 ± 46 µM
[15]
  IC50: 24 ± 12 µM
BPH-1 (UZ)
  IC50: 43 ± 3.5 µM
[16]
  IC50: 35 ± 16 µM
[17]
  IC50: 25 ± 5.7 µM
[18]
  IC50: 8.7 ± 4.7 µM
[19]
  IC50: 46 ± 2.1 µM
[20]
  IC50: 28 ± 19 µM
PLC/PRF/5 hepatoma cells
  IC50: 36 ± 2.8 µM
HepG2C3A hepatoma cells
  IC50: 34 ± 22 µM
Huh-7 hepatoma cells
  IC50: 52 ± 7.8 µM

From patent US9278958B2, “Anti-cancer compounds” (KATHOLIEKE UNIVERSITEIT LEUVEN, priority 2012, dated 2016)
